Assay results taken from US20130165475A1, “DEUTERIUM-ENRICHED HETEROCYCLIC COMPOUNDS AS KINASE INHIBITORS” (ASCEPION PHARMACEUTICALS, INC., priority 2010, published 2013).
Structures can show the parent of a compound that is named as a salt.

What was measured:
PDGFRβ = molecular target: T1, PDGFRβ (Homo sapiens, UniProt P09619); assay: PDGFRβ cell-based assay (ELISA, phosphor-/total PDGFRβ in transfected CHO cells); details: compound at 100 nM; CHO cells transfected with full length PDGFRβ; FBS stimulation; read-out: % PDGFRβ kinase activity remains
T1 construct: expressed in transfected cells; host or cells: CHO cells
T1 sequence (P09619 33-1106): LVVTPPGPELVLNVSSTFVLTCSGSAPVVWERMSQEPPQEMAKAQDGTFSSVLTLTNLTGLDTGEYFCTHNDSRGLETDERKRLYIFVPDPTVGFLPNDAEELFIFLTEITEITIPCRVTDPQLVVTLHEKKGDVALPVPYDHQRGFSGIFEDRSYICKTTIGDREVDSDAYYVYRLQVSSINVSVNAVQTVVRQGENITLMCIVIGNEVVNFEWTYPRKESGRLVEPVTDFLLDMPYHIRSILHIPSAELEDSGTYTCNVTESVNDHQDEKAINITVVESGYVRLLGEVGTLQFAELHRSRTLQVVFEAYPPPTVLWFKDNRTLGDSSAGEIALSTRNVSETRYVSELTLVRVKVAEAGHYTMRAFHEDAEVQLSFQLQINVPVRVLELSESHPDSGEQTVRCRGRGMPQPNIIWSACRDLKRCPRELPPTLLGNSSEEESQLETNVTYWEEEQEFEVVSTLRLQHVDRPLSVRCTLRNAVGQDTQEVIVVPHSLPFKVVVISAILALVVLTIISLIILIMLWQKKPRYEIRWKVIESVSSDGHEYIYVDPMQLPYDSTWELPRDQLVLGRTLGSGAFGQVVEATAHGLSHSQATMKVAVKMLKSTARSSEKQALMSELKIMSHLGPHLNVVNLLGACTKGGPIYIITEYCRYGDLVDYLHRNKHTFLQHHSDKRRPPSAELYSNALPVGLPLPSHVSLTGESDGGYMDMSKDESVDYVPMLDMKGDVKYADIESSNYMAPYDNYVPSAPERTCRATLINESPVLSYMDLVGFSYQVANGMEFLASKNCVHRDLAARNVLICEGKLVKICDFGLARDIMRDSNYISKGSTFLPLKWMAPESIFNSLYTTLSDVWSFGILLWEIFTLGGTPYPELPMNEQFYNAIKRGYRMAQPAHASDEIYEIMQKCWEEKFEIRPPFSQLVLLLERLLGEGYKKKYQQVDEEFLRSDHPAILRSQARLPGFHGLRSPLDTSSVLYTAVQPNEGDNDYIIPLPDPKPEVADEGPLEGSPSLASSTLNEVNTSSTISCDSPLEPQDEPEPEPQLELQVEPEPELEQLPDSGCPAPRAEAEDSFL
Description: A standard cell-based assay for PDGFRβ kinase activity can be used to test or screen the compounds of this invention and to identify PDGFRβ antagonists. In this example, ELISA kits (R&D Systems, Inc., Minneapolis, Minn. 55413, USA) were used.
(§1) The activity of PDGFRβ in cells depended on its autophosphorylation level by various factors including growth factors. In order to induce the cell to produce PDGFRβ, full length of PDGFRβ sequence was cloned into PC-DNA3.1 vector, the plasmid was then transfected into CHO cells. After 48 hours, the expression of PDGFRβ in transfected CHO cells was confirmed by regular western blotting.
A compound to be tested was first dissolved in DMSO to a concentration of 10 mM and stored at −20° C. One day before the screening, CHO cells transfected with full length PDGFRβ plasmid were grown in DMEM medium without the presence of serum. On the day of screening procedure, the compounds with various concentration in DMSO (from 0.5 nM to 500 nM) were added into DMEM medium, two hours later, 20% of FBS (Fetal Bovine Serum) was added into the medium to stimulate the production of phosphor-PDGFRβ. Cell lysate from approximately 5×10^5 transfected CHO cells were reacted with anti-phosphor PDGFRβ or anti-total PDGFRβ antibody in 96 well plates, in the presence of detection antibody. The phosphor-PDGFRβ or total PDGFRβ were detected with Streptavidin-HRP (R&D Systems), followed by chemiluminescent detection. The level of PDGFRβ kinase activity was quantified as the ratio between the amount of phosphor- and that of total PDGFRβ proteins.

c-Met = molecular target: T2, c-Met (Homo sapiens, UniProt P08581); assay: c-Met cell-based assay (ELISA, phosphor-/total c-Met in transfected CHO cells, HGF stimulated); details: compound at 100 nM; CHO cells transfected with full length c-Met; HGF 100 ng/mL
T2 construct: expressed in transfected cells; host or cells: CHO cells
T2 sequence (P08581 25-1390): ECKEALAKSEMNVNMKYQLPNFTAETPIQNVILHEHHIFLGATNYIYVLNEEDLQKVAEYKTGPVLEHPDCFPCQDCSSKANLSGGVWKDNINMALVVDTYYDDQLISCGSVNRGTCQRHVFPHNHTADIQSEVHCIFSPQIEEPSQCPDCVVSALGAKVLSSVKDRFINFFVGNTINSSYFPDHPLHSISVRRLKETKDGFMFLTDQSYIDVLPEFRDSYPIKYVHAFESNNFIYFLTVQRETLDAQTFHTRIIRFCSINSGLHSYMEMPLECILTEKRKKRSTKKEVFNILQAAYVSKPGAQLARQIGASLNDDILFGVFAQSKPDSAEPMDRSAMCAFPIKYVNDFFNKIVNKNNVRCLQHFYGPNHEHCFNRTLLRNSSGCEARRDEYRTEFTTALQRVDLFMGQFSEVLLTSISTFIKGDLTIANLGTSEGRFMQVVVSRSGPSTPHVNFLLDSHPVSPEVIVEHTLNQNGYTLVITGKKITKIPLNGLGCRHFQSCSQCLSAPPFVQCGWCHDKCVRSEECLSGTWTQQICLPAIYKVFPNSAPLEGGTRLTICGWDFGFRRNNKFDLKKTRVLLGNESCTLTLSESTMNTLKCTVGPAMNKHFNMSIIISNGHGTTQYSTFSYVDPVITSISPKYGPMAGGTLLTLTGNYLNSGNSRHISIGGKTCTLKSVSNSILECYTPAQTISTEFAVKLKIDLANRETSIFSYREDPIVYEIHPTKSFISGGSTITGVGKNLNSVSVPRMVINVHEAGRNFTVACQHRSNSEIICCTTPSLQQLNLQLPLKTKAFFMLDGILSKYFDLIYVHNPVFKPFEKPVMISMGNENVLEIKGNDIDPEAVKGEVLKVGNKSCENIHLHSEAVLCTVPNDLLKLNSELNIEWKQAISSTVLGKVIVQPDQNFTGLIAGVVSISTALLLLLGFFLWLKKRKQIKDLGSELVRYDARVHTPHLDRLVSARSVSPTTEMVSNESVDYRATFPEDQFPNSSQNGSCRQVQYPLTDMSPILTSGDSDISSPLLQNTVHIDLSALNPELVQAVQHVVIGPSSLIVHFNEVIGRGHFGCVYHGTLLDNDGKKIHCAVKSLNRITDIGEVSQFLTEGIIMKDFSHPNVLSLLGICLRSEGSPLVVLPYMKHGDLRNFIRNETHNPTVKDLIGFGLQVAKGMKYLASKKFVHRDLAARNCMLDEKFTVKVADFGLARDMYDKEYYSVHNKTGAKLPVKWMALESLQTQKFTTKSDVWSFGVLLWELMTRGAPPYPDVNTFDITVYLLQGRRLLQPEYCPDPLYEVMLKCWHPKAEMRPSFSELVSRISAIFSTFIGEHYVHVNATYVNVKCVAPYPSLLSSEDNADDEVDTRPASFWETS
Description: A standard cell-based assay for c-Met kinase activity can be used to test or screen the compounds of this invention and to identify c-Met antagonists. In this example, ELISA kits (R&D Systems, Inc., Minneapolis, Minn. 55413, USA) were used.
as §1, with “c-Met” for “PDGFRβ”, “it specific” for “various factors including”, “factor-Hepatocyte growth factor (HGF).” for “factors.”, “c-Met,” for “PDGFRβ,”
A compound to be tested was first dissolved in DMSO to a concentration of 10 mM and stored at −20° C. One day before the screening, CHO cells transfected with full length c-Met plasmid were grown in DMEM medium without the presence of serum. On the day of screening procedure, the compounds with various concentration in DMSO (from 0.5 nM to 500 nM) were added into DMEM medium, two hours later, Hepatocyte growth factor (HGF) was added into the medium at the concentration of 100 ng/mL to stimulate the production of phosphor-c-Met. Cell lysate from approximately 5×10^5 transfected CHO cells were reacted with anti-phosphor c-Met or anti-total c-Met antibody in 96 well plates, in the presence of detection antibody. The phosphor-c-Met or total c-Met were detected with Streptavidin-HRP (R&D Systems), followed by chemiluminescent detection. The level of c-Met kinase activity was quantified as the ratio between the amount of phosphor- and that of total c-Met proteins.

Compound	remaining activity at 0.1 µM (PDGFRβ) [%]	% C-Met kinase activity remains (c-Met)
[2H]C([2H])(c1ccnc(N)c1)N1CCc2c(NC(=O)Nc3cc(Cl)ccc3OC)cccc21 [Example 1, 1-[1-[(2-Amino-4-pyridyl)-dideuteriomethyl]indolin-4-yl]-3-(5-chloro-2-methoxyphenyl)urea]	< 70	B (the percentage is greater or equal to 70%)
[2H]C([2H])([2H])Oc1ccc(Cl)cc1NC(=O)Nc1cccc2c1CCN2C([2H])([2H])c1ccnc(N)c1 [Example 3, 1-[1-[(2-Amino-4-pyridyl)-dideuteriomethyl]indolin-4-yl]-3-[5-chloro-2-(trideuteriomethoxy)phenyl]urea]	≥ 70	A (the percentage of kinase activity remains is below 70%)
[2H]C([2H])([2H])Oc1ccc(Cl)cc1NC(=O)Nc1cccc2c1ccn2C([2H])([2H])c1ccnc(N)c1 [Example 4, 1-[1-[(2-amino-4-pyridyl)-dideuteriomethyl]indol-4-yl]-3-[5-chloro-2-(trideuteriomethoxy)phenyl]urea]	≥ 70	A (the percentage of kinase activity remains is below 70%)
[2H]C([2H])([2H])Oc1ccc(Cl)cc1NC(=O)Nc1cccc2c1CCN2Cc1ccnc(N)c1 [Example 5, 1-[1-[(2-Amino-4-pyridyl)methyl]indolin-4-yl]-3-[5-chloro-2-(trideuteriomethoxy)phenyl]urea]	< 70	A (the percentage of kinase activity remains is below 70%)
[2H]C([2H])([2H])Oc1ccc(Cl)cc1NC(=O)Nc1cccc2c1ccn2Cc1ccnc(N)c1 [Example 6, 1-[1-[(2-amino-4-pyridyl)methyl]indol-4-yl]-3-[5-chloro-2-(trideuteriomethoxy)phenyl]urea]	< 70	A (the percentage of kinase activity remains is below 70%)
Cl.[2H]C([2H])([2H])Oc1ccc(Cl)cc1NC(=O)Nc1cccc2c1CCN2C([2H])([2H])c1ccnc2[nH]ccc12 [Example 7, 1-[5-Chloro-2-(trideuteriomethoxy)phenyl]-3-[1-[dideuterio(1H-pyrrolo[2,3-b]pyridin-4-yl)methyl]indolin-4-yl]urea hydrochloride]	< 70	A (the percentage of kinase activity remains is below 70%)
Cl.[2H]C([2H])([2H])Oc1ccc(Cl)cc1NC(=O)Nc1cccc2c1ccn2C([2H])([2H])c1ccnc2[nH]ccc12 [Example 8, 1-[5-chloro-2-(trideuteriomethoxy)phenyl]-3-[1-[dideuterio(1H-pyrrolo[2,3-b]pyridin-4-yl)methyl]indol-4-yl]urea hydrochloride]	< 70	A (the percentage of kinase activity remains is below 70%)
[2H]C([2H])(c1ccnc2[nH]ccc12)N1CCc2c(NC(=O)Nc3cc(Cl)ccc3OC)cccc21 [Example 9, 1-(5-Chloro-2-methoxyphenyl)-3-[1-[dideuterio(1H-pyrrolo[2,3-b]pyridin-4-yl)methyl]indolin-4-yl]urea hydrochloride]	< 70	A (the percentage of kinase activity remains is below 70%)
[2H]C([2H])(c1ccnc2[nH]ccc12)n1ccc2c(NC(=O)Nc3cc(Cl)ccc3OC)cccc21 [Example 10, 1-(5-chloro-2-methoxyphenyl)-3-[1-[dideuterio(1H-pyrrolo[2,3-b]pyridin-4-yl)methyl]indol-4-yl]urea hydrochloride]	≥ 70	A (the percentage of kinase activity remains is below 70%)
[2H]C([2H])(c1ccnc2[nH]ccc12)N1CCc2c(NC(=O)Nc3cc(Cl)ccc3F)cccc21 [Example 11, 1-(5-Chloro-2-fluorophenyl)-3-[1-[dideuterio(1H-pyrrolo[2,3-b]pyridin-4-yl)methyl]indolin-4-yl]urea hydrochloride]	< 70	A (the percentage of kinase activity remains is below 70%)
[2H]C([2H])(c1ccnc2[nH]ccc12)n1ccc2c(NC(=O)Nc3cc(Cl)ccc3F)cccc21 [Example 12, 1-(5-chloro-2-fluorophenyl)-3-[1-[dideuterio(1H-pyrrolo[2,3-b]pyridin-4-yl)methyl]indol-4-yl]urea hydrochloride]	≥ 70	A (the percentage of kinase activity remains is below 70%)
[2H]C([2H])(c1ccnc2[nH]ccc12)N1CCc2c(NC(=O)Nc3cccc(C)c3)cccc21 [Example 13, 1-[1-[Dideuterio(1H-pyrrolo[2,3-b]pyridin-4-yl)methyl]indolin-4-yl]-3-(m-tolyl)urea hydrochloride]	< 70	A (the percentage of kinase activity remains is below 70%)
[2H]C([2H])(c1ccnc2[nH]ccc12)n1ccc2c(NC(=O)Nc3cccc(C)c3)cccc21 [Example 14, 1-[1-[dideuterio(1H-pyrrolo[2,3-b]pyridin-4-yl)methyl]indol-4-yl]-3-(m-tolyl)urea hydrochloride]	< 70	A (the percentage of kinase activity remains is below 70%)
[2H]C(c1c[nH]c2ncccc12)N1CCc2c(NC(=O)Nc3cc(Cl)ccc3OC([2H])([2H])[2H])cccc21 (stereo not shown) [Example 15, 1-[5-Chloro-2-(trideuteriomethoxy)phenyl]-3-[1-[deuterio(1H-pyrrolo[2,3-b]pyridin-3-yl)methyl]indolin-4-yl]urea]	≥ 70	A (the percentage of kinase activity remains is below 70%)
[2H]C(c1c[nH]c2ncccc12)n1ccc2c(NC(=O)Nc3cc(Cl)ccc3OC([2H])([2H])[2H])cccc21 (stereo not shown) [Example 16, 1-[5-chloro-2-(trideuteriomethoxy)phenyl]-3-[1-[deuterio(1H-pyrrolo[2,3-b]pyridin-3-yl)methyl]indol-4-yl]urea]	≥ 70	A (the percentage of kinase activity remains is below 70%)
[2H]C(c1c[nH]c2ncccc12)N1CCc2c(NC(=O)Nc3cc(Cl)ccc3OC)cccc21 (stereo not shown) [Example 17, 1-(5-Chloro-2-methoxyphenyl)-3-[1-[deuterio(1H-pyrrolo[2,3-b]pyridin-3-yl)methyl]indolin-4-yl]urea]	< 70	A (the percentage of kinase activity remains is below 70%)
[2H]C(c1c[nH]c2ncccc12)n1ccc2c(NC(=O)Nc3cc(Cl)ccc3OC)cccc21 (stereo not shown) [Example 18, 1-(5-chloro-2-methoxyphenyl)-3-[1-[deuterio(1H-pyrrolo[2,3-b]pyridin-3-yl)methyl]indol-4-yl]urea]	< 70	A (the percentage of kinase activity remains is below 70%)
[2H]C(c1c[nH]c2ncccc12)N1CCc2c(NC(=O)Nc3cc(Cl)ccc3F)cccc21 (stereo not shown) [Example 19, 1-(5-Chloro-2-fluorophenyl)-3-[1-[deuterio(1H-pyrrolo[2,3-b]pyridin-3-yl)methyl]indolin-4-yl]urea]	≥ 70	B (the percentage is greater or equal to 70%)
[2H]C(c1c[nH]c2ncccc12)n1ccc2c(NC(=O)Nc3cc(Cl)ccc3F)cccc21 (stereo not shown) [Example 20, 1-(5-chloro-2-fluorophenyl)-3-[1-[deuterio(1H-pyrrolo[2,3-b]pyridin-3-yl)methyl]indol-4-yl]urea]	< 70	A (the percentage of kinase activity remains is below 70%)
[2H]C(c1c[nH]c2ncccc12)N1CCc2c(NC(=O)Nc3cccc(C)c3)cccc21 (stereo not shown) [Example 21, 1-[1-[Deuterio(1H-pyrrolo[2,3-b]pyridin-3-yl)methyl]indolin-4-yl]-3-(m-tolyl)urea]	< 70	B (the percentage is greater or equal to 70%)
